Patent publication US20220168431A1, “METHODS OF TREATING CANCER USING TRIMETAZIDINE-BASED COMPOUNDS” (IMBRIA PHARMACEUTICALS, INC., priority 2019, published 2022)
“And” between values parts separate entries of the source, which are not always exact repeats. Equal values may be shown once. One block for each molecule: values may come before it.

Experiments:
[1] = Stability of CV-8972 forms in various solvents, X-ray powder diffraction; format: physicochemical; conditions: batch 289-MBA-15-A (form B)
Procedure: The stability of CV-8972 was analyzed.
Samples from batch 289-MBA-15-A (containing form B) were added to various solvents, incubated under various conditions, and analyzed by X-ray powder diffraction.
Samples from batch 289-MBA-16 (containing forms A and B) were added to various solvents, incubated under various conditions, and analyzed by X-ray powder diffraction.
Samples from batch S-18-0030513 (containing form A) were added to various solvents, incubated under various conditions, and analyzed by X-ray powder diffraction.

[2] = Stability of CV-8972 in aqueous solution at different concentrations and pH; format: physicochemical
Procedure: The stability of CV-8972 was analyzed. Aqueous samples containing CV-8972 at different concentrations and pH were incubated for various periods and analyzed.
Form A of CV-8972 were analyzed for stability in aqueous solution. Aqueous samples containing CV-8972 at different concentrations and pH were incubated for various periods and analyzed.

[3] = test system: isolated hearts after ischemia-reperfusion; assay: Ischemia-reperfusion (IR) method, coronary flow; format: in vivo, mice
Procedure: FIG. 38 is a schematic of the ischemia-reperfusion (IR) method used to analyze the effects of compositions of the invention on coronary flow, cardiac function, and infarct size. […] At 20 minutes, ischemia was induced, and coronary flow was analyzed. At 50 minutes, reperfusion was initiated to restore blood flow. At 170 minutes, coronary flow and cardiac function was analyzed, and then the hearts were preserved, sectioned, and infarct size was measured by triphenyltetrazolium chloride (TTC) staining. FIG. 39 is a graph of coronary flow of after IR.

[4] = test system: isolated hearts after ischemia-reperfusion; assay: Ischemia-reperfusion (IR) method, cardiac function (LVDP); format: in vivo, mice
Procedure: FIG. 38 is a schematic of the ischemia-reperfusion (IR) method used to analyze the effects of compositions of the invention on coronary flow, cardiac function, and infarct size. […] At 20 minutes, ischemia was induced, and coronary flow was analyzed. At 50 minutes, reperfusion was initiated to restore blood flow. At 170 minutes, coronary flow and cardiac function was analyzed, and then the hearts were preserved, sectioned, and infarct size was measured by triphenyltetrazolium chloride (TTC) staining. FIG. 40 is graph of left ventricular developed pressure (LVDP) after IR. Blue bars indicate LVDP at 20 minutes, and orange bars indicate LVDP at 170 minutes.

[5] = test system: isolated hearts after ischemia-reperfusion; assay: Ischemia-reperfusion (IR) method, infarct size by TTC staining; format: in vivo, mice; conditions: result in words
Procedure: FIG. 38 is a schematic of the ischemia-reperfusion (IR) method used to analyze the effects of compositions of the invention on coronary flow, cardiac function, and infarct size. […] At 20 minutes, ischemia was induced, and coronary flow was analyzed. At 50 minutes, reperfusion was initiated to restore blood flow. At 170 minutes, coronary flow and cardiac function was analyzed, and then the hearts were preserved, sectioned, and infarct size was measured by triphenyltetrazolium chloride (TTC) staining. […] FIG. 42 is graph of infarct size after TR.

XRPD results ([1]; EtOH, CC from 60° C.): Form C + minor
XRPD results ([1]; no solvent, 100° C., 20 minutes): Form B, shifted
SMILES: COc1ccc(CN2CCN(CCOC(=O)c3cccnc3)CC2)c(OC)c1OC [CV-8972, 2-(4-(2,3,4-trimethoxybenzyl)piperazin-1-yl)ethyl nicotinate]

Retention Time 5.6 (CV-8972 peak) ([2]; 2 mg/mL pH 6 (Form B), 1 hrs, measured pH 6.9): 95.1
Retention Time 5.6 (CV-8972 peak) ([2]; 2 mg/mL pH 6 (Form B), 4 hrs, measured pH 6.8): 92.45
Retention Time 5.6 (CV-8972 peak) ([2]; 2 mg/mL pH 6 (Form B), 6 hrs, measured pH 6.8): 90.65
Retention Time 5.6 (CV-8972 peak) ([2]; 2 mg/mL pH 6 (Form B), 22 hrs, measured pH 6.7): 89.15
Retention Time 5.6 (CV-8972 peak) ([2]; 2 mg/mL pH 7 (Form B), 1 hrs, measured pH 6.6): 95.46
Retention Time 5.6 (CV-8972 peak) ([2]; 2 mg/mL pH 7 (Form B), 4 hrs, measured pH 6.5): 93.92
Retention Time 5.6 (CV-8972 peak) ([2]; 10 mg/mL pH 6 (Form B), 1 hrs, measured pH 6.1): 94.81
Retention Time 5.6 (CV-8972 peak) ([2]; 10 mg/mL pH 6 (Form B), 4 hrs, measured pH 6): 94.69
Retention Time 5.6 (CV-8972 peak) ([2]; 10 mg/mL pH 6 (Form B), 6 hrs, measured pH 5.9): 94.39
Retention Time 5.6 (CV-8972 peak) ([2]; 10 mg/mL pH 6 (Form B), 22 hrs, measured pH 5.9): 93.93
Retention Time 5.6 (CV-8972 peak) ([2]; 10 mg/mL pH 7 (Form B), 1 hrs, measured pH 7.4): 86.18
Retention Time 5.6 (CV-8972 peak) ([2]; 10 mg/mL pH 7 (Form B), 4 hrs, measured pH 7.4): 82.36
Retention Time 5.6 (CV-8972 peak) ([2]; 10 mg/mL pH 7 (Form B), 6 hrs, measured pH 7.3): 79.37
SMILES: COc1ccc(CN2CCN(CCOC(=O)c3cccnc3)CC2)c(OC)c1OC.Cl.Cl.Cl [289-MBA-15-A]

SMILES: COc1ccc(CN2CCNCC2)c(OC)c1OC [TMZ, trimetazidine]
CF170/CF20 ([3]; group MEAN, ratio 170 minutes to 20 minutes): 4.02E+01 ul/m1
CF170/CF20 ([3]; ratio of flow at 170 minutes to flow at 20 minutes, individual hearts, TMZ 20 μM, TNF 2 μM each, TNS 20 μM each): 2.42E+01 ul/m1 and 5.87E+01 ul/m1 and 3.57E+01 ul/m1 and 3.37E+01 ul/m1 and 5.21E+01 ul/m1 and 2.73E+01 ul/m1 and 2.60E+01 ul/m1 and 6.39E+01 ul/m1
LVDP × HR ([4]; after 2h reperfusion, group MEAN): 6.82E+03
LVDP × HR ([4]; after 2h reperfusion, individual hearts): 2.52E+03 and 5.15E+03 and 5.28E+03 and 4.49E+03 and 3.24E+03 and 4.31E+03 and 9.11E+03 and 1.30E+04 and 6.44E+03 and 1.77E+04
LVDP × HR ([4]; pre-ischemia, group MEAN): 1.68E+04
LVDP × HR ([4]; pre-ischemia, individual hearts): 1.83E+04 and 2.31E+04 and 1.08E+04 and 1.77E+04 and 2.33E+04 and 1.26E+04 and 9.82E+03 and 1.01E+04 and 1.57E+04 and 2.36E+04
cardiac function after IR ([4]; result in words): prevented a decline in cardiac function
infarct size after IR [5]: decreased infarct size

Retention Time 5.6 (CV-8972 peak) ([2]; 2 mg/mL pH 6 (Form A), 1 hrs, measured pH 6.1): 97.22
Retention Time 5.6 (CV-8972 peak) ([2]; 2 mg/mL pH 6 (Form A), 4 hrs, measured pH 6.1): 97.01
Retention Time 5.6 (CV-8972 peak) ([2]; 2 mg/mL pH 6 (Form A), 6 hrs, measured pH 6.1): 96.51
Retention Time 5.6 (CV-8972 peak) ([2]; 2 mg/mL pH 7 (Form A), 1 hrs, measured pH 6.8): 95.06
Retention Time 5.6 (CV-8972 peak) ([2]; 2 mg/mL pH 7 (Form A), 4 hrs, measured pH 6.7): 93.7
Retention Time 5.6 (CV-8972 peak) ([2]; 2 mg/mL pH 7 (Form A), 6 hrs, measured pH 6.7): 92.12
Retention Time 5.6 (CV-8972 peak) ([2]; 2 mg/mL pH 7 (Form A), 22 hrs, measured pH 6.8): 91.07
Retention Time 5.6 (CV-8972 peak) ([2]; 10 mg/mL pH 6 (Form A), 1 hrs, measured pH 6.8): 93.43
Retention Time 5.6 (CV-8972 peak) ([2]; 10 mg/mL pH 6 (Form A), 4 hrs, measured pH 6.8): 91.82
Retention Time 5.6 (CV-8972 peak) ([2]; 10 mg/mL pH 6 (Form A), 6 hrs, measured pH 6.7): 91.8
Retention Time 5.6 (CV-8972 peak) ([2]; 10 mg/mL pH 6 (Form A), 22 hrs, measured pH 6.7): 89.66
Retention Time 5.6 (CV-8972 peak) ([2]; 10 mg/mL pH 7 (Form A), 1 hrs, measured pH 7.2): 89.05
Retention Time 5.6 (CV-8972 peak) ([2]; 10 mg/mL pH 7 (Form A), 4 hrs, measured pH 7.1): 86.8
Retention Time 5.6 (CV-8972 peak) ([2]; 10 mg/mL pH 7 (Form A), 6 hrs, measured pH 7.1): 84.79
SMILES: COc1ccc(CN2CCN(CCOC(=O)c3cccnc3)CC2)c(OC)c1OC.Cl.Cl.Cl [276-MBA-172]
